Results: patent US10968203B2, “Pyrimidinyl-pyridyloxy-naphthyl compounds and methods of treating IRE1-related diseases and disorders” (Genentech, Inc., priority 2017, dated 2021)
Counter-ions that a name gives are not always drawn.

The molecules below were run on XBP1s-luc 293 LUC (assay: cellular PD assay, XBP1s-LUC reporter (Example 903)). Details: Table 1; read-out: XBP1s-luc 293 LUC (IC50).
Format: cell-based
Experimental: Inhibition of IRE1α RNase activity was determined in an enzyme assay that measured cleavage of the XBP1 stem loop by autophosphorylated IRE1α. This assay format was chosen to ensure that inhibitors of either the IRE1α kinase or the RNase domains would be identified. Binding to the ATP pocket and inhibition of IRE1α kinase activity are not necessarily required to inhibit the RNase activity. Compounds were also profiled in cellular assays by direct measurement of XBP s (B-DNA assay) or by quantification of the luciferase signal in HT1080 XBP1-Luc, which carries a luciferase fusion that is only in frame and expressed from the spliced XBP1 transcript.
Biological activity of Formula I or I′ compounds was measured by an IRE1 biochemical binding assay (Example 901), a biochemical RNase assay (Example 902), a cellular PD assay, XBP1s-LUC reporter (Example 903), and an IRE1α-based inhibition of multiple myeloma (MM) cell proliferation assay.
All of the exemplary Formula I or I′ compounds in Tables 1 and 2 were made and characterized by LCMS [M+H]^+ (liquid chromatography mass spectroscopy) with detection of parent ion. All of the exemplary Formula I compounds in Tables 1 and 2 were prepared according to the procedures of the Schemes, General Procedures, and Examples. All of the exemplary Formula I or I′ compounds in Tables 1 and 2 were tested for binding to IRE1 (inositol requiring enzyme 1 alpha) and biological activity according to the assays and protocols of Example 901-903. Exemplary Formula I or I′ compounds in Tables 1 and 2 have the following structures, corresponding IUPAC names (ChemBioDraw, Version 12.0.2, CambridgeSoft Corp., Cambridge Mass.), and biological activity. Where more than one name is associated with a Formula I or I′ compound or intermediate in Tables 1 and 2 and the Experimental Procedures, the chemical structure shall define the compound. Assignment of configuration at chiral centers in separated stereoisomers may be tentative, and depicted in Tables 1 and 2 structures for illustrative purposes, before stereochemistry is definitively established, such as from x-ray crystallographic data. In some cases, stereoisomers are separated and tested for biological activity before the stereochemistry of the separated stereoisomers is determined; and stereochemistry in some instances was inferred based on structure-activity relationship (SAR) knowledge from previous compounds. In some cases, the compounds are tested as racemic or diastereomeric mixtures. Where more than one potency value is entered on a row, separated stereoisomers represented by the structure and name on that row were tested. Exemplary compounds of Formula I or I′ in Table 3 can be prepared using methods known in the art or according to procedures similar to those described in the Schemes, General Procedures, and Examples 101-500. Biological activities of compounds in Table 3 can be tested in biological assays, for example, those in Examples 901, 902 and 903 described herein.
Work on `Cc1ccc2c(NS(=O)(=O)N3CCCC3)cccc2c1Oc1ncccc1-c1ccnc(N[C@H]2CCCNC2)n1` [Example 108, (S)—N-(6-Methyl-5-((3-(2-(piperidin-3-ylamino)pyrimidin-4-yl)pyridin-2-yl)oxy)naphthalen-1-yl)pyrrolidine-1-sulfonamide hydrochloride] yielded an IC50 of 298 nM. Work on `Cc1ccc2c(NC[C@@H](C)O)cccc2c1Oc1ncccc1-c1ccnc(N[C@H]2CCCNC2)n1` [Example 300, (R)-1-((6-Methyl-5-((3-(2-((S)-piperidin-3-ylamino)pyrimidin-4-yl)pyridin-2-yl)oxy)naphthalen-1-yl)amino)propan-2-ol] yielded an IC50 of 55.4 nM. With `Cc1ccc2c(N3CC[C@H](C)C3=O)cccc2c1Oc1ncccc1-c1ccnc(N[C@H]2CCCNC2)n1` (single isomer, unassigned) [Example 257] the IC50 was 264 nM. For `Cc1ccc2c(NC[C@@H]3CC3(F)F)cccc2c1Oc1ncccc1-c1ccnc(N[C@H]2CCCNC2)n1` (single isomer, unassigned) [Example 343], the IC50 was 181 nM. Molecule `Cc1ccc2c(NS(=O)(=O)CC3CCC3)cccc2c1Oc1ncccc1-c1ccnc(N[C@H]2CCCNC2)n1` [Example 127, (S)-1-Cyclobutyl-N-(6-methyl-5-((3-(2-(piperidin-3-ylamino)pyrimidin-4-yl)pyridin-2-yl)oxy)naphthalen-1-yl)methanesulfonamide] has an IC50 of 233 nM. Work on `Cc1ccc2c(NS(=O)(=O)CCC(F)(F)F)c(F)ccc2c1Oc1ncccc1-c1ccnc(N[C@H]2CCCNC2)n1` [Example 276, (S)-3,3,3-Trifluoro-N-(2-fluoro-6-methyl-5-((3-(2-(piperidin-3-ylamino)pyrimidin-4-yl)pyridin-2-yl)oxy)naphthalen-1-yl)propane-1-sulfonamide hydrochloride] yielded an IC50 of 44.1 nM. `Cc1ccc2c(NC(=O)CC(C)(C)C)c(F)ccc2c1Oc1ncccc1-c1ccnc(N[C@@H]2CNC[C@@H](F)C2)n1` (single isomer, unassigned) [Example 322] gave an IC50 of 40.7 nM. For `CCCS(=O)(=O)Nc1cccc2c(Oc3ncccc3-c3ccnc(N[C@H]4CC[C@H](N)CC4)n3)c(C)ccc12` [Example 158, N-(5-((3-(2-(((trans)-4-Aminocyclohexyl)amino)pyrimidin-4-yl)pyridin-2-yl)oxy)-6-methylnaphthalen-1-yl)propane-1-sulfonamide], the IC50 was 471 nM. `CO[C@H]1CNC[C@@H](Nc2nccc(-c3cccnc3Oc3c(C)ccc4c(NS(=O)(=O)Cc5ccccc5)cccc34)n2)C1` [Example 161, N-(5-((3-(2-(((3S,5R)-5-Methoxypiperidin-3-yl)amino)pyrimidin-4-yl)pyridin-2-yl)oxy)-6-methylnaphthalen-1-yl)-1-phenylmethanesulfonamide] showed an IC50 of 46 nM. With `CCCC(=O)Nc1cccc2c(Oc3ncccc3-c3ccnc(N[C@H]4CCCNC4)n3)c(C)ccc12` [Example 117, (S)—N-(6-Methyl-5-((3-(2-(piperidin-3-ylamino)pyrimidin-4-yl)pyridin-2-yl)oxy)naphthalen-1-yl)butyramide hydrochloride] the IC50 was 145 nM. Work on `COC(=O)CNc1cccc2c(Oc3ncccc3-c3ccnc(N[C@H]4CCCNC4)n3)c(C)ccc12` [Example 314, (S)-Methyl 2-((6-methyl-5-((3-(2-(piperidin-3-ylamino)pyrimidin-4-yl)pyridin-2-yl)oxy)naphthalen-1-yl)amino)acetate] yielded an IC50 of 208 nM. Molecule `Cc1ccn(-c2cccc3c(Oc4ncccc4-c4ccnc(N[C@H]5CCCNC5)n4)c(C)ccc23)n1` [Example 250, (S)-4-(2-((2-methyl-5-(3-methyl-1H-pyrazol-1-yl)naphthalen-1-yl)oxy)pyridin-3-yl)-N-(piperidin-3-yl)pyrimidin-2-amine] has an IC50 of 258 nM. `Cc1ccc2c(NCc3ccn(C)n3)cccc2c1Oc1ncccc1-c1ccnc(N[C@H]2CCCNC2)n1` [Example 262, (S)-4-(2-((2-Methyl-5-(((1-methyl-1H-pyrazol-3-yl)methyl)amino)naphthalen-1-yl)oxy)pyridin-3-yl)-N-(piperidin-3-yl)pyrimidin-2-amine] gave an IC50 of 171 nM. For `Cc1cn(C)nc1Nc1cccc2c(Oc3ncccc3-c3ccnc(N[C@H]4CCCNC4)n3)c(C)ccc12` [Example 358, (S)-4-(2-((5-((1,4-Dimethyl-1H-pyrazol-3-yl)amino)-2-methylnaphthalen-1-yl)oxy)pyridin-3-yl)-N-(piperidin-3-yl)pyrimidin-2-amine], the IC50 was 266 nM. Work on `Cc1ccc2c(NS(=O)(=O)N(C)C)cccc2c1Oc1ncccc1-c1ccnc(N[C@H]2CCCNC2)n1` [Example 109, 4-[2-[[5-(Dimethylsulfamoylamino)-2-methyl-1-naphthyl]oxy]-3-pyridyl]-2-[[(3S)-3-piperidyl]amino]pyrimidine hydrochloride] yielded an IC50 of 222 nM. Work on `Cc1ccc2c(NC(=O)C3(F)CC3)cccc2c1Oc1ncccc1-c1ccnc(N[C@H]2CCCNC2)n1` [Example 155, (S)-1-Fluoro-N-(6-methyl-5-((3-(2-(piperidin-3-ylamino)pyrimidin-4-yl)pyridin-2-yl)oxy)naphthalen-1-yl)cyclopropane-1-carboxamide] yielded an IC50 of 380 nM. For `Cc1cc(S(=O)(=O)Nc2cccc3c(Oc4ncccc4-c4ccnc(N[C@H]5CCCNC5)n4)c(C)ccc23)sn1` [Example 168, (S)-3-Methyl-N-(6-methyl-5-((3-(2-(piperidin-3-ylamino)pyrimidin-4-yl)pyridin-2-yl)oxy)naphthalen-1-yl)isothiazole-5-sulfonamide], the IC50 was 172 nM.

Same assay, conditions: Table 2; read-out: XBP1s-luc 293 LUC (IC50)
With `Cc1ccc2c(NS(=O)(=O)CCCF)c(F)ccc2c1Oc1ncccc1-c1ccnc(N[C@H]2CCCNC2)n1` [Example 406, (S)-3-Fluoro-N-(2-fluoro-6-methyl-5-((3-(2-(piperidin-3-ylamino)pyrimidin-4-yl)pyridin-2-yl)oxy)naphthalen-1-yl)propane-1-sulfonamide hydrochloride] the IC50 was 31 nM. Molecule `Cc1ccc2c(NS(=O)(=O)N(C)Cc3ccccc3)c(F)ccc2c1Oc1ncccc1-c1ccnc(N[C@H]2CCCNC2)n1` [Example 410, 4-[2-[[5-[[Benzyl(methyl)sulfamoyl]amino]-6-fluoro-2-methyl-1-naphthyl]oxy]-3-pyridyl]-2-[[(3S)-3-piperidyl]amino]pyrimidine hydrochloride] has an IC50 of 87 nM. Molecule `COC(C)CS(=O)(=O)Nc1c(F)ccc2c(Oc3ncccc3-c3ccnc(N[C@H]4CCCNC4)n3)c(C)ccc12` (stereo partly drawn) [Example 404, N-(2-Fluoro-6-methyl-5-((3-(2-(((S)-piperidin-3-yl)amino)pyrimidin-4-yl)pyridin-2-yl)oxy)naphthalen-1-yl)-2-methoxypropane-1-sulfonamide] has an IC50 of 34 nM. `Cc1ccc2c(NS(=O)(=O)CCC(C)(F)F)c(F)ccc2c1Oc1ncccc1-c1ccnc(N[C@@H]2CNC[C@H](C)C2)n1` [Example 485, 3,3-Difluoro-N-[2-fluoro-6-methyl-5-[[3-[2-[[(3S,5R)-5-methyl-3-piperidyl]amino]pyrimidin-4-yl]-2-pyridyl]oxy]-1-naphthyl]butane-1-sulfonamide hydrochloride] gave an IC50 of 6 nM. `Cc1ccc2c(NS(=O)(=O)CC3CC3)c(F)ccc2c1Oc1ncccc1-c1ccnc(N[C@H]2CCCNC2)n1` [Example 405, (S)-1-Cyclopropyl-N-(2-fluoro-6-methyl-5-((3-(2-(piperidin-3-ylamino)pyrimidin-4-yl)pyridin-2-yl)oxy)naphthalen-1-yl)methanesulfonamide hydrochloride] was tested, and the IC50 was 25 nM. With `COCCCS(=O)(=O)Nc1c(F)ccc2c(Oc3ncccc3-c3ccnc(N[C@H]4CCCNC4)n3)c(C)ccc12` [Example 450, (S)—N-(2-Fluoro-6-methyl-5-((3-(2-(piperidin-3-ylamino)pyrimidin-4-yl)pyridin-2-yl)oxy)naphthalen-1-yl)-3-methoxypropane-1-sulfonamide hydrochloride] the IC50 was 104 nM. Work on `Cc1ccc2c(NC[C@H](O)C(C)C)cccc2c1Oc1ncccc1-c1ccnc(N[C@H]2CCCNC2)n1` (single isomer, unassigned) [Example 461, hydrochloride] yielded an IC50 of 42 nM. Work on `CCC(C)CS(=O)(=O)Nc1c(F)ccc2c(Oc3ncccc3-c3ccnc(N[C@H]4CCCNC4)n3)c(C)ccc12` (mixture of isomers) [Example 409, N-(2-Fluoro-6-methyl-5-((3-(2-(((S)-piperidin-3-yl)amino)pyrimidin-4-yl)pyridin-2-yl)oxy)naphthalen-1-yl)-2-methylbutane-1-sulfonamide] yielded an IC50 of 25 nM. Molecule `Cc1ccc2c(NS(=O)(=O)CC(C)C(F)(F)F)c(F)ccc2c1Oc1ncccc1-c1ccnc(N[C@H]2CCCNC2)n1` (single isomer, unassigned) [Example 454, hydrochloride] has an IC50 of 24 nM.
